Results as given in patent US7250397B2, “Antiarrhythmic peptides” (Zealand Pharma A/S, priority 2000, dated 2007).
“Also recorded” adds a separate entry of the source.

Experiments:
[1] = system: isolated guinea pig myocytes; experiment: Intercellular conductance Gj (GJIC), double patch clamp of cardiomyocyte pairs; type: cell-based; conditions: 10^−8 M
Protocol: Cell preparation: Cells were isolated from guinea pig hearts by perfusion with collagenase according to the Langendorf method. In brief, guinea pigs were heparinised with an intraperitoneal injection of heparin (1000 IU/kg). After 30 minutes the animal was sacrificed by a blow to the neck followed by cutting the spine at the neck. The chest was opened and the aorta cannulated. Then the cannula was fixed to the aorta by a ligature, exised and perfused with Tyrodes solution for a couple of minutes. The Tyrodes solution had the following composition in mM: Na^+ 135.33, K^+ 4, Cl^− 145, PO4^− 0.33, Mg^2+ 1, Ca^2+ 2, Hepes 10, Glucose 10, pH 7.4. All perfusion media were bubled by 100% oxygen. […]. Then the heart was perfused with high K^+ solution with 0.6 mg/ml collagenase, this was done for 10-15 minutes judged from the apperance of the heart. The atria were cut off, the ventricles minced, whereafter the pieces were stirred in the collagenase solution by gently bubbling with 100% oxygen. […]
Where Ip,pulse and Ip,rest represent the current in the passive cell during the pulse and before the pulse respectively, and Up and Ua represent the voltage of the passive and active cell. […] However, the change in Gj value to a standardized intervention like a drug can be analysed by comparing the relative changes in Gj.

[2] = system: ventricular reentry arrhythmias; experiment: Ventricular reentry arrhythmias in dogs after coronary artery occlusion; type: in vivo, dog; conditions: i.v. bolus and infusion after CAO; from the lowest dose
Protocol: Three dogs were studied in the anesthetized, open chest state to facilitate electrode placement for mapping. α-chloralose was given as a bolus (200 mg/kg) and then a constant infusion at 8 mg/kg/hr (dissolved in polyethylene glycol, MW=200). The femoral vein and artery was cannulated for administration of fluid and drugs and for measurement of ascending aortic pressure, respectively.
The sinus node was clamped and the atrial appendage was paced with a programmable stimulator with constant current outputs at two times diastolic threshold. Pacing rate was ≧200 b/min to control heart rates. […] Endocardial Effective Refractory Period (ERP) was measured by the standard extrastimulus technique. Late ventricular diastolic threshold was measured during each intervention; the pacing current was four times threshold.
Test sites were chosen along the shaft of 16 pole needles (J. Kassell, Fayetteville, N.C.); each pole completely surrounds the needle shaft to prevent directionality of needle orientation from recording of adjacent Purkinje strands. Six bipolar electrograms (1 mm spacing) were recorded sequentially down the shaft of the needle by amplifying up to 1000 times, filtering from 3-1300 Hz and recording via oscilloscope during atrial pacing. Four intramural electrograms are recorded on each multipolar needle. […]

## Ac-D-Tyr-D-Pro-D-4Hyp-Gly-D-Ala-Gly-NH2 [Compound 2]
[1]
  time of stimulation until steady-state level of Gj: about 400 seconds
[2]
  inducibility of reentry ventricular tachycardia (VT): no longer inducible; also recorded: completely blocked; also recorded: No VT was inducible
